Patent US20240350481A1, “USE OF N-MYRISTOYL TRANSFERASE (NMT) INHIBITORS IN THE TREATMENT OF CANCER, AUTOIMMUNE DISORDERS, AND INFLAMMATORY DISORDERS” (PACYLEX PHARMACEUTICALS INC., priority 2020, published 2024)

How the values were obtained:
[1] = Toxicology in DOHH2 xenograft mice; settings: for Aspartate Transaminase / Bilirubin / Creatine PhosphoKinase / Creatinine: mean ± SEM, n = 3
Experimental: Mice were observed daily for clinical signs of toxicity and effects on body weight. After the last dose, three mice/group were euthanized and necropsied. At euthanasia, blood samples were taken for hematology analyses and to measure AST and CK activities and bilirubin and creatinine concentrations. At necropsy, samples of samples of femur, both kidneys, liver, small intestine, and injection site were taken and fixed.
The dose volume was 10 mL/kg. At the end of the two-to three-week dosing period, mice were euthanized and three/group were necropsied. Mice that died or were euthanized early for humane reasons also were necropsied. In life, mice were monitored regularly and weighed daily, and tumors were measured with digital Vernier calipers (Mitutoyo) every other day. Tumor volume was calculated as length (mm)×width (mm)2/2; length and width were the longest and shortest diameters, respectively. At euthanasia, at the end of the dosing period blood samples were taken for hematology analyses and clinical chemistry analyses that included AST and CK activities and bilirubin and creatinine concentrations (plus ALT activity and BUN concentration in the Jackson Laboratory study). At necropsy, samples of femur, both kidneys, liver, small intestine, and injection site were collected and fixed. These were subsequently processed and examined by light microscopy for histopathologic findings. Also at necropsy, the tumors were removed and divided in two. One piece was fixed in 10% neutral buffered formalin for 24 h at room temperature and embedded in paraffin; the other was snap frozen for RNA and protein analysis. Tumor growth inhibition (TGI) for all xenograft experiments was calculated following the formula:

[2] = Toxicology in DLBCL3 patient derived xenograft mice; assay type: in vivo, mouse; settings: for Absolute Basophil cells: normal [0-0.2]; for Absolute Monocyte cells: normal [0-0.4]; for Basophil %: normal [0-2]; for Eosinophil %: normal [0-3.9]; for Monocyte %: normal [0-7.5]; for Absolute Neutrophil cells: normal [0.1- 2.4]; for WBC: normal [1.8-10.7]; for MPV: normal [5-20]; for RDW %: normal [12.4-27]
Experimental: (§1) The dose volume was 10 mL/kg.

[3] = tested on: patient DLBCL3 derived lymphoma xenograft; assay: DLBCL3 patient-derived xenograft, tumor growth; assay type: in vivo, mouse; settings: 20 mg/kg subcutaneous daily, 21 days
Experimental: as §1
TGI (%)=(Vcontrol−Vtreated)/(Vcontrol−Vnitial)*100.
The pleural fluid was collected in cold sterile 20% RPMI 1640 medium and neoplastic cells were isolated with Ficoll-Paque Plus (GE Healthcare) and re-suspended in […] (Life Technologies) with 20% foetal bovine serum (Life Technologies, Carlsbad, CA). […] The cell suspension was injected subcutaneously in the flank of 4-6-week-old NODscid mice. When the tumors reached a maximum of 1000 mm^3, the mice were sacrificed, tumors were harvested, and a necropsy was performed. Xenograft tumors were immediately frozen, fixed in formalin, and stored in 90% foetal bovine serum, and 10% dimethyl sulfoxide or placed in RPMI 1640 medium. This process was repeated to produce subsequent generations of patient-derived xenograft models (P2, P3, P4, . . . ). To evaluate the maintenance of the morphology and main characteristics of the tumor of origin, formalin-fixed, paraffin-embedded tissue sections from patient tumor samples and xenografts of all established patient-derived xenograft models were stained with haematoxylin and eosin. These sections were also immunostained to measure the expression of various markers. A clinical pathologist reviewed all the slides. […]

[4] = DOHH2 xenograft, c2, head missing (per Table 4: PCLX-001 10 mg/kg/day)
[5] = DOHH2 xenograft, c3, head missing (per Table 4: PCLX-001 20 mg/kg/day)
[6] = DOHH2 xenograft, c4, head missing (per Table 4: PCLX-001 50 mg/kg/day Interm.)
[7] = DOHH2 xenograft, c5, head missing (per Table 4: PCLX-001 50 mg/kg/day)
[8] = DLBCL patient derived xenograft, PCLX-001 20 mg/kg/day
[9] = DLBCL patient derived xenograft, PCLX-001 50 mg/kg/day

SMILES: Cc1c(N[S+](=O)([O-])c2c(Cl)cc(-c3ccnc(N4CCNCC4)c3)cc2Cl)c(CC(C)C)nn1C [PCLX-001]
- Hemoglobin ([1]; DOHH2 xenograft, PCLX-001 50 mg/kg/day, normal [11-15.1]): 14.77 ± 0.23 g/dL
- RDW % ([1]; DOHH2 xenograft, PCLX-001 50 mg/kg/day, normal [12.4-27]): 25.8 ± 0.3%
- MCH ([1]; DOHH2 xenograft, PCLX-001 50 mg/kg/day, normal [14.1-19.3]): 15.9 ± 0.1 pg
- MCHC ([1]; DOHH2 xenograft, PCLX-001 50 mg/kg/day, normal [30.2-34.2]): 34.1 ± 0.1 g/dL
- Hematocrit % ([1]; DOHH2 xenograft, PCLX-001 50 mg/kg/day, normal [35.1-45.4]): 43.3 ± 0.7%
- MCV ([1]; DOHH2 xenograft, PCLX-001 50 mg/kg/day, normal [45.4-60.3]): 46.6 ± 0.2 fL
- Platelets ([1]; DOHH2 xenograft, PCLX-001 50 mg/kg/day, normal [592-2972]): 900.7 ± 60.8 K/uL
- Aspartate Transaminase [1, 4]: 104.33 ± 27.34 U/L
- Bilirubin [1, 4]: 0.1 ± 0 mg/dL
- Creatine PhosphoKinase [1, 4]: 81.7 ± 25.1 U/L
- Creatinine [1, 4]: 0.3 ± 0.067 mg/dL
- Aspartate Transaminase [1, 5]: 132.67 ± 55.29 U/L
- Bilirubin [1, 5]: 0.1 ± 0 mg/dL
- Creatine PhosphoKinase [1, 5]: 54 ± 14.7 U/L
- Creatinine [1, 5]: 0.3 ± 0 mg/dL
- Aspartate Transaminase [1, 6]: 125.67 ± 68.18 U/L
- Bilirubin [1, 6]: 0.1 ± 0 mg/dL
- Creatine PhosphoKinase [1, 6]: 92.3 ± 29.5 U/L
- Creatinine [1, 6]: 0.3 ± 0 mg/dL
- Aspartate Transaminase [1, 7]: 279.7 ± 34.17 U/L
- Bilirubin [1, 7]: 0.1 ± 0 mg/dL
- Creatine PhosphoKinase [1, 7]: 266.67 ± 69.9 U/L
- Creatinine [1, 7]: 0.2 ± 0 mg/dL
- Noteworthy findings after last dose ([1]; Group 2, Low-dose, 10 mg/kg): None
- Noteworthy findings after last dose ([1]; Group 4, Mid-dose, 20 mg/kg): None
- mortality ([1]; any dose): does not increase mortality
- loss of body weight ([2]; 50 mg/kg daily): ~15%
- clinical signs, clinical pathology, anatomic pathology ([2]; 20 and 50 mg/kg): no clinical signs of toxicity, effects on clinical pathology parameters, or anatomic pathology findings
- Hematocrit % [2, 8]: 47.13 ± 1.1%
- MCV [2, 8]: 53.5 ± 0.36
- Neutrophil % [2, 8]: 57.17 ± 9.40%
- RBC [2, 8]: 8.81 ± 0.15 M/ul
- Absolute Basophil cells [2, 8]: 0 ± 0
- Absolute Monocyte cells [2, 8]: 0.23 ± 0.06
- Basophil % [2, 8]: 0.1 ± 0.04%
- Eosinophil % [2, 8]: 0.26 ± 0.08%
- Monocyte % [2, 8]: 15.48 ± 4.35%
- Absolute Neutrophil cells [2, 8]: 0.86 ± 0.22
- WBC [2, 8]: 1.49 ± 0.24 K/ul
- MPV [2, 8]: 4.93
- RDW % [2, 8]: 18.07 ± 0.03%
- Hematocrit % [2, 9]: 42.47 ± 4.04%
- MCV [2, 9]: 50.83 ± 0.35
- Neutrophil % [2, 9]: 58.04%
- RBC [2, 9]: 8.36 ± 0.83 M/ul
- Absolute Basophil cells [2, 9]: 0 ± 0
- Absolute Monocyte cells [2, 9]: 0.37 ± 0.07
- Basophil % [2, 9]: 0.04 ± 0.04%
- Eosinophil % [2, 9]: 0.32 ± 0.1%
- Monocyte % [2, 9]: 17.24%
- Absolute Neutrophil cells [2, 9]: 1.28 ± 0.34
- Absolute Lymphocyte cells ([2]; DLBCL patient derived xenograft, PCLX-001 50 mg/kg/day, normal [0.9-9.3]): 0.52 ± ? .12
- WBC [2, 9]: 2.17 ± 0.5 K/ul
- MPV [2, 9]: 5.27 ± 0.18
- RDW % [2, 9]: 20.37 ± 0.37%
- MCH ([2]; DLBCL patient derived xenograft, PCLX-001 50 mg/kg/day, normal [14.1-19.3]): 12.5 pg
- MCHC ([2]; DLBCL patient derived xenograft, PCLX-001 50 mg/kg/day, normal [30.2-34.2]): 24.53 ± 0.24 g/dL
- Lymphocyte % ([2]; DLBCL patient derived xenograft, PCLX-001 50 mg/kg/day, normal [55.8-91.6]): 24.36 ± 2.93%
- TGI [3]: 66%
